Among the test systems are HOP-62 NSCLC; HOP-92 NSCLC; MALME-3M melanoma; MDA-MB-231 breast; SF-295 CNS; SK-MEL-5 melanoma; SN12C renal; SNB-19 CNS; SR leukemia; TK-10 renal.
Assay in all cases: NCI anticancer screen, dose series, 48 h

Experimental findings from PubChem BioAssay (NCI) are described below.

SMILES strings stand for the structures. Where “and” joins values, the source holds several entries; their conditions need not be identical. Equal values may be shown once.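 Step 1: Grow cells in 96-well plates. Step 2: Expose to compound for 48 hours at 5 concentrations. Step 3: Interpolate endpoints linearly; if unreached, use highest concentration. At the GI50, growth is halved. TGI denotes the concentration required for complete inhibition of growth.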 Where only a bound is given, the exact number is not on record here.

For `COc1ccc(/C=C/C(C)=N/OCC(=O)Nc2ccc(Cl)cc2)cc1`, the GI50 in the assay with HOP-62 NSCLC was 5.06 µM; with HOP-92 NSCLC it was 0.561 µM; with MALME-3M melanoma, 4.22 µM; in the assay with MDA-MB-231 breast, 1.76 µM; in the assay on SF-295 CNS, 2.96 µM; with SK-MEL-5 melanoma it was 2.36 µM. Besides, the GI50 in the assay on SN12C renal was 2.8 µM; in the assay on SNB-19 CNS, 3.16 µM; in the assay on SR leukemia it was 2.24 µM; with TK-10 renal, 7.74 µM. For the same molecule, the TGI in the assay with HOP-62 NSCLC turned out to be 27.5 µM; in the assay on HOP-92 NSCLC it was 4.68 µM; with MALME-3M melanoma it was 23.3 µM; in the assay with MDA-MB-231 breast, 8.99 µM; in the assay on SF-295 CNS, 14.9 µM; in the assay with SK-MEL-5 melanoma, 7.98 µM. The TGI in the assay on SN12C renal was more than 47.7 µM; in the assay on SNB-19 CNS, more than 60.1 µM; in the assay on SR leukemia it was 10.6 µM; in the assay with TK-10 renal it was 38.9 µM.

On to `CCSc1ncc(Br)c(Sc2nc(N)nc3nc[nH]c23)n1`, for which the GI50 in the assay on HOP-62 NSCLC was 1.64 µM; with HOP-92 NSCLC, 1.97 µM; with MALME-3M melanoma, 1.25 µM; in the assay with MDA-MB-231 breast, 2.8 µM; in the assay with SF-295 CNS it was 1.82 µM; in the assay on SK-MEL-5 melanoma, 3.8 µM. The GI50 is 4.52 µM with SN12C renal, more than 100 µM with SNB-19 CNS, 1.83 µM in the assay with SR leukemia and 2.55 µM with TK-10 renal. For the same molecule, the TGI was 24.4 µM in the assay with HOP-62 NSCLC; 43.4 µM in the assay with HOP-92 NSCLC; 34.3 µM in the assay with MALME-3M melanoma; more than 100 µM in the assay with MDA-MB-231 breast; more than 100 µM with SF-295 CNS; 49.8 µM in the assay with SK-MEL-5 melanoma. Also, the TGI is more than 100 µM with SN12C renal, more than 100 µM in the assay on SNB-19 CNS, more than 100 µM in the assay on SR leukemia and 25.9 µM in the assay with TK-10 renal.

Take `O=C(Oc1ccc2c(c1)CN(Cc1ccccc1)CO2)c1ccccc1`: the TGI came to 38.6 µM with HOP-62 NSCLC; 28.2 µM in the assay with HOP-92 NSCLC; 33.9 µM in the assay with MALME-3M melanoma; 36 µM in the assay with MDA-MB-231 breast; 38.4 µM in the assay with SF-295 CNS; 31.1 µM in the assay with SK-MEL-5 melanoma. The TGI was 34.1 µM in the assay with SN12C renal, 34.1 µM with SNB-19 CNS, 69.2 µM with SR leukemia and 29.8 µM with TK-10 renal.

For the molecule `NC(N)=N/N=C(/c1ccccc1)c1ccccc1F`, the GI50 is 4.62 µM in the assay with HOP-62 NSCLC; 18.3 µM with HOP-92 NSCLC; 8 µM in the assay with MALME-3M melanoma; 3.34 µM in the assay with MDA-MB-231 breast; 2.43 µM in the assay on SF-295 CNS; 0.911 µM in the assay on SK-MEL-5 melanoma. The GI50 in the assay on SN12C renal was 5.98 µM; in the assay on SNB-19 CNS, 4.19 µM; in the assay on SR leukemia, 0.809 µM; with TK-10 renal it was 9.86 µM. The TGI is 18.2 µM in the assay on HOP-62 NSCLC; more than 81.5 µM in the assay with HOP-92 NSCLC; 25.6 µM in the assay on MALME-3M melanoma; 11.8 µM in the assay with MDA-MB-231 breast; 14.3 µM in the assay with SF-295 CNS; 12.5 µM in the assay with SK-MEL-5 melanoma. In addition, the TGI in the assay on SN12C renal was 31.3 µM; in the assay with SNB-19 CNS, 31.3 µM; in the assay on SR leukemia, more than 100 µM; in the assay on TK-10 renal, 47.2 µM.

In the case of `CNCc1cccc2c1OCCOCCOCCC(C)S(=O)(=O)c1ccc(cc1)-c1cnc(N)c(n1)C(=O)N2` (configuration not stated), the GI50 was 1.14 µM with HOP-62 NSCLC; 11.5 µM with HOP-92 NSCLC; 1.59 µM in the assay with MALME-3M melanoma; 2.34 µM in the assay on MDA-MB-231 breast; 2.84 µM in the assay on SF-295 CNS; 2.05 µM in the assay on SK-MEL-5 melanoma. Further, the GI50 in the assay with SN12C renal was 1.24 µM; in the assay on SNB-19 CNS it was 2.5 µM; in the assay with SR leukemia, 0.0861 µM; with TK-10 renal, 1.37 µM. In addition, the TGI was found to be 4.82 µM in the assay with HOP-62 NSCLC; 25 µM with HOP-92 NSCLC; 3.13 µM in the assay with MALME-3M melanoma; 5.5 µM in the assay on MDA-MB-231 breast; 9.07 µM in the assay with SF-295 CNS; 4.58 µM with SK-MEL-5 melanoma. Besides, the TGI in the assay on SN12C renal is 3.14 µM; in the assay with SNB-19 CNS, 5.52 µM; with SR leukemia, 4.71 µM; in the assay on TK-10 renal, 8.25 µM.

`O=NN(CCCl)C(=O)NC1CCCCC1`: the GI50 in the assay on HOP-62 NSCLC is 51.9 µM and 113 µM; with HOP-92 NSCLC, 23.6 µM and 42.6 µM; in the assay on MALME-3M melanoma, 18 µM; in the assay with SF-295 CNS it was 91.7 µM; in the assay with SK-MEL-5 melanoma, 23 µM and 78.4 µM; in the assay with SN12C renal, 20.9 µM and 92.8 µM. For the same molecule, the GI50 was 9.14 µM with SR leukemia; 28 µM and 87.4 µM with TK-10 renal. In addition, the TGI is 154 µM and 213 µM with HOP-62 NSCLC; 48.7 µM and 99.1 µM and 74.7 µM in the assay with HOP-92 NSCLC; 37 µM and 150 µM and 112 µM in the assay with MALME-3M melanoma; 57 µM in the assay with MDA-MB-231 breast; 118 µM in the assay on SF-295 CNS; 78.5 µM and 133 µM and 209 µM with SK-MEL-5 melanoma. The TGI with SN12C renal was 47.8 µM and 123 µM and 214 µM; in the assay with SNB-19 CNS it was 118 µM and 194 µM; in the assay with TK-10 renal it was 86.8 µM and 152 µM and 177 µM.

`COc1ccc(/C(C)=C(\c2ccc(Cl)cc2)c2ccc(OCCN3CCCCCC3)cc2)cc1F`: the GI50 in the assay with HOP-62 NSCLC was 3.33 µM; in the assay on HOP-92 NSCLC, 2.57 µM; with MALME-3M melanoma it was 2.25 µM; in the assay with MDA-MB-231 breast, 3.29 µM; in the assay with SF-295 CNS it was 2.69 µM; in the assay with SK-MEL-5 melanoma, 2.89 µM. Moreover, the GI50 in the assay on SN12C renal was 2.96 µM; in the assay on SNB-19 CNS it was 5.13 µM; in the assay with SR leukemia, 2.26 µM; with TK-10 renal it was 4.28 µM. The TGI in the assay with HOP-62 NSCLC came out at 6.72 µM; in the assay on HOP-92 NSCLC it was 6.62 µM; in the assay on MALME-3M melanoma, 4.72 µM; in the assay on MDA-MB-231 breast, 6.11 µM; in the assay on SF-295 CNS it was 5.61 µM; in the assay on SK-MEL-5 melanoma it was 5.27 µM. Moreover, the TGI was 8.3 µM with SN12C renal, more than 16.7 µM in the assay with SNB-19 CNS, 12.3 µM with SR leukemia and 14 µM in the assay with TK-10 renal.
